These results are taken from PubChem BioAssay AID742 (SRMLSC, 2007).

For orientation: EC50 means the concentration that produces a half-maximal response. A low value points to a more potent agent.

The source made the active and inactive calls. No rule for the calls is given here. Where only a bound is given, the exact number is not on record here.

Assay [1] has as its system human cells, Her2 expression AlphaScreen; CTG viability. The experiment in a line: Her2 expression suppression with viability readout – cell-based, AlphaScreen, CellTiter-Glo viability, dose response (AID 742). The following applies: viability, CellTiter-Glo. On the technique in general: Bead proximity is the source of the signal in Alpha formats.
Test in assay [2]: as above
The following applies: human cells, Her2 expression AlphaScreen; CTG viability; at 9.62 µM (top of the series).

In assay [1], `COC(=O)c1[nH]c2ccc(Br)cc2c1NC(=O)C(C)N1CCN(C2CCCCC2)CC1` (stereo unspecified) gave an EC50 above 9.62 µM. Also, the Her2 inhibition in assay [2] is -20.7% (inactive).
Compound `CCOC(=O)c1c(C)[nH]c(C(=O)OC/C(O)=C(\C#N)c2nc3ccccc3[nH]2)c1C` returned an EC50 in assay [1] above 9.62 µM. The Her2 inhibition in assay [2] is 16.6% (inactive).
In assay [1], `COc1ccc(/C=C/C(O)=C2/C(=O)N(C)C3(C)CC2c2ccccc2O3)cc1` (stereo unspecified) yielded an EC50 above 9.62 µM. Moreover, the Her2 inhibition in assay [2] is 23.7% (inactive).
On the same counts, the results for `O=C(CCN1CCC(c2ccccc2)C1)c1cccs1` (stereo unspecified) are above 9.62 µM and -8.45% (inactive).
On the same counts, the results for `Cc1cc2nnc(SC(C)C#N)n2c2ccccc12` (stereo unspecified) are above 9.62 µM and -10.1% (inactive).
Consider `O=C1CC(Sc2nnnn2C2CCCCC2)C(=O)N1c1ccccc1` (stereo unspecified), for which the EC50 in assay [1] is above 9.62 µM. Further, the Her2 inhibition in assay [2] was -12.8% (inactive).
In turn, `CCn1c(=O)c(C(=O)Nc2nc3ccccc3[nH]2)c(O)c2ccccc21` had an EC50 in assay [1] above 9.62 µM. The Her2 inhibition in assay [2] was 41.2% (inactive).
In the same order, the values of `CCCCNC(=O)OCCNC(=O)NC` are above 9.62 µM and -40% (inactive).
In the same order, the values of `O=C(O)CCc1nn2cc(-c3ccccc3)nc2[nH]c1=O` are above 9.62 µM and -26.9% (inactive).
In the same order, the values of `Cc1ccc(NC(=O)CNc2cccc(C)c2C)c(C)c1` are above 9.62 µM and -12.6% (inactive).
As for `Cn1c(Cl)cnc1C1CC(=O)c2cc(Cl)ccc2O1` (stereo unspecified), the EC50 in assay [1] is above 9.62 µM. For the same compound, in assay [2], the Her2 inhibition is 15.6% (inactive).
Regarding `C=C(C)Cn1c(-c2ccc(OC)cc2)nc2ccccc21`, the EC50 in assay [1] is above 9.62 µM. For the same compound, the Her2 inhibition in assay [2] was -19.2% (inactive).
In the same order, the values of `CCCCCN=Cc1c(C)[nH]n(-c2nc3ccccc3s2)c1=O` are above 9.62 µM and -1.78% (inactive).
`Cc1ccccc1-c1nc(CN2CCC(C(=O)NCCC3=CCCCC3)CC2)c(C)o1` displayed an EC50 in assay [1] above 9.62 µM. In addition, the Her2 inhibition in assay [2] is -53.7% (inactive).
In turn, `COc1ccc(-n2nnc3c(SCC(=O)Nc4ccc5c(c4)OCCO5)ncnc32)cc1` yielded a concentration giving a half-maximal response (EC50) in assay [1] above 9.62 µM. For the same compound, in assay [2], the Her2 inhibition was -9.58% (inactive).
In the same order, the values of `CN(C)CCCN1c2ccccc2Sc2ccc(C(F)(F)F)cc21` are above 9.62 µM and 0.74% (inactive).
For `Cn1nnnc1Sc1ncnc2scc(-c3ccccc3)c12`, in assay [1], the EC50 is above 9.62 µM. In addition, the Her2 inhibition in assay [2] is 41.9% (inactive).
`CC1(C)CC(=O)NC=C(c2ccccc2)C1`: in assay [1], the EC50 is above 9.62 µM. In addition, in assay [2], the Her2 inhibition is 0.71% (inactive).
In the same order, the values of `CC(C)(C)c1cc(C(c2cccnc2)N2CCN(CCO)CC2)cc(C(C)(C)C)c1O` (stereo unspecified) are above 9.62 µM and 7.24% (inactive).
For the compound `O=C(Nc1ccc(Cl)cc1)Nc1ccc2c(c1)N1CCN=C1S2`, the EC50 in assay [1] was above 9.62 µM. For the same compound, the Her2 inhibition in assay [2] is -7.78% (inactive).
As to `CC1(C)CCCC2=C1CC1C(=O)N(Cc3cccnc3)C(=O)C1C2` (stereo unspecified), the EC50 in assay [1] is above 9.62 µM. In assay [2], the Her2 inhibition was -13.3% (inactive).
In the same order, the values of `Cc1cc(NC(=O)CNC(=O)C2CCCCC2)no1` are above 9.62 µM and 12.1% (inactive).
In assay [1], `COc1ccc(OCC(=O)NCc2cccnc2)cc1` gave an EC50 above 9.62 µM. The Her2 inhibition in assay [2] is -22.7% (inactive).
In the same order, the values of `CCCCn1c(SCc2c(C)noc2C)nc2cc(S(N)(=O)=O)ccc21` are above 9.62 µM and -2.2% (inactive).
`CCCC1C(c2ccccc2)C(C#N)(C#N)C2(C#N)CC1(N)NC2=O` (stereo unspecified) showed an EC50 in assay [1] above 9.62 µM. Further, in assay [2], the Her2 inhibition was -6.63% (inactive).
In the same order, the values of `Cc1cc(NC(=O)CCCS(=O)(=O)c2nc(-c3cccs3)cc(C(F)(F)F)n2)no1` are above 9.62 µM and 18.9% (inactive).
On the same counts, the results for `[O-][N+]1=c2ccc(Nc3ccccc3)cc2=NC12CCCCC2` are above 9.62 µM and -11% (inactive).
As to `CC(O)CCc1nc2ccc(C(=O)O)cc2[nH]1` (stereo unspecified), the EC50 in assay [1] is above 9.62 µM. The Her2 inhibition in assay [2] was -23.7% (inactive).
In the same order, the values of `CCOC(=O)CC(N)c1ccc2c(c1)OCO2` (stereo unspecified) are above 9.62 µM and -8.02% (inactive).
On the same counts, the results for `CCOC(=O)c1c(C)oc2c1c(C(c1ccncc1)N1CCOCC1)c(O)c1ccccc12` (stereo unspecified) are above 9.62 µM and 23.5% (inactive).
On the same counts, the results for `CC(C)(C)NC(=O)CSc1ncnc2c1nnn2Cc1ccccc1Cl` are above 9.62 µM and -10.2% (inactive).
In the case of `N#Cc1ccc(-c2ccco2)nc1SCc1ccccc1`, in assay [1], the EC50 was above 9.62 µM. For the same compound, in assay [2], the Her2 inhibition is 14.8% (inactive).
On to `C/C(=N\O)C(=O)C(CN1CCCCC1)CN1CCCCC1`, for which the EC50 in assay [1] was above 9.62 µM. Besides, the Her2 inhibition in assay [2] is 15.2% (inactive).
